Results on 13 compounds are retold here after patent publication US5391554A, “Dihydro- and tetrahydronaphthyridines” (Warner-Lambert Company, priority 1992, dated 1995).

Entries after “also recorded” stand apart in the source; their conditions may differ. Like-named read-outs stand apart in the source and are kept apart here.

Data set [1] concerns repair of damage caused by ionizing radiation. Particulars: background; cited from earlier work.
Data set [2] has as its target T1, Poly (ADP-ribose) synthetase (Bos taurus, UniProt P18493).
T1 construct: Poly(ADP-ribose) synthetase from calf thymus; from tissue; host or cells: calf thymus
In words: Inhibition of Poly (ADP-ribose) synthetase (ADPRP inhibition). Format: biochemical. As to conditions: [3H]NAD, calf thymus DNA and histone, pH 8.0, 30° C., 15 minutes. The method, then: Poly (ADP-ribose) synthetase is partially purified by the procedure of Shizuta, et al, up to and including the DNA-agarose column step. Active fractions are pooled and stored in small aliquots at -90° C. The specific activity was generally in the range of 25 U/rag protein, where one unit of enzyme activity is defined as the amount polymerizing 1 nmol of ADP-ribose moiety from [^3 H]NAD per minute at 30° C.
The enzyme assay is performed by placing the following in small glass tubes kept at 4° C.: 100 μL of buffer consisting of 0.5 M Tris-HCl pH 8.0, 50 mM MgCl2, and 5 mM dithiothreitol; 50 μL of 1 mM [adenine-2,8-^3 H]nicotinamide adenine dinucleotide at a concentration of 15 μCi/mL; 100 μL of calf thymus DNA (0.3 mg/mL in water); 50 μL of calf thymus histone (Sigma, Type IIA, 0.5 mg/mL); 50 μL of inhibitor or inhibitor solvent; 150 μL of enzyme (25 μg). The components are thoroughly mixed and warmed to 30° C. in a water bath. After 15 minutes the reaction is stopped by adding 2 mL of ice cold 15% trichloroacetic acid and the tubes are placed on ice for 15 minutes. The precipitate is collected on glass fiber filters and washed five times with ice-cold 15% trichloroacetic acid. The filters are dried and radioactivity determined in a liquid scintillation counter.

The next data set concerns Rif-1 sarcoma. In words: In Vivo Assay for Radiosensitizing Activity (Rif-1 sarcoma). Also on record: species or system mice. As to conditions: IP 30 minutes before first x-ray dose, Days 6-10 and 13-17, x-Ray only T-C 18 days. On the procedure:
Mice were implanted with 1.9×10^5 Rif-1 sarcoma cells on Day 0. Treatment was on Days 6-10 and 13-17. On each treatment day the tumor-bearing limb received two doses of 2.5 Gy X-irradiation separated by 3 hours. Test compound was administered IP 30 minutes prior to the first x-ray dose on each treatment day. Effectiveness is measured by the T-C, the difference in days for the treated and control tumors, respectively, to reach 1000 mg.

For another data set, the system named is hypoxic tumor cells. As to conditions: in vitro and in vivo, background, cited from earlier work.
A further data set has as its system central nervous system. Particulars: cited from earlier work.

T1 sequence (P18493 whole entry): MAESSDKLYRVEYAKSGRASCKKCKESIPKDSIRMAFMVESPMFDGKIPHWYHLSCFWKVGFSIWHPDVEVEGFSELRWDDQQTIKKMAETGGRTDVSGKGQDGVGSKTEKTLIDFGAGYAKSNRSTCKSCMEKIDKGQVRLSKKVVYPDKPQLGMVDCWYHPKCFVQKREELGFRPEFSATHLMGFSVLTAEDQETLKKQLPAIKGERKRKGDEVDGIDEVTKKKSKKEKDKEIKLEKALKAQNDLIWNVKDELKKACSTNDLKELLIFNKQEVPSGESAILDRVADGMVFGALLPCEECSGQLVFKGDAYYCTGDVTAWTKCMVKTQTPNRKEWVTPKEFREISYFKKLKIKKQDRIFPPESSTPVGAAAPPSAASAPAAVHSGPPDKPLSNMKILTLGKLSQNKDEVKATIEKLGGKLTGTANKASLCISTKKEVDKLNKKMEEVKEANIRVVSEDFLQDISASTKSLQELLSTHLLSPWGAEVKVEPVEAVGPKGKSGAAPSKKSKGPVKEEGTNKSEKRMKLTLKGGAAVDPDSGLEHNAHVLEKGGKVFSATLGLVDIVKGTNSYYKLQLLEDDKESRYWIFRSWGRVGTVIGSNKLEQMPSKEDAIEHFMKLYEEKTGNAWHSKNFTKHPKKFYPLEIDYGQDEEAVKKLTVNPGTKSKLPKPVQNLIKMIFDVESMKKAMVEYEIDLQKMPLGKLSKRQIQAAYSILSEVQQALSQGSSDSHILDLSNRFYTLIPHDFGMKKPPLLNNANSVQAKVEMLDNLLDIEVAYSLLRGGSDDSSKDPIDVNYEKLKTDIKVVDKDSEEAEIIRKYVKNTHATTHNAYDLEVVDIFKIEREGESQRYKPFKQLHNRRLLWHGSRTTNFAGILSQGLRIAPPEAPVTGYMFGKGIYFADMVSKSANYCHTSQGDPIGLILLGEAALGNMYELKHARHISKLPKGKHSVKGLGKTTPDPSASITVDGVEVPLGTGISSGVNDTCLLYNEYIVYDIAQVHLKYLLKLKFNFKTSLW

In the case of `NC(=O)c1cccc(N)c1` [3-aminobenzamide], the “sensitization to lethal effects of radiation / inhibition of repair” value in data set [1] is on record as “inhibit this postirradiation repair process; also recorded: repair of damage caused by exposure to DNA-damaging agents such as ionizing radiation, was inhibited”.
As a reminder, the IC50 is the concentration that inhibits the measured activity by half. Lower therefore signals greater potency. As to `O=c1[nH]ccc2ncccc12` [Compound 3, 1,6-Naphthyridine-5(6H)-one], the concentration for half-maximal inhibition (IC50) in data set [2] is 1000 to 10000 nM.
The same measure, in the same setting: then `Cc1cc2ncccc2c(=O)[nH]1` [Compound 4, 7-Methyl-1,6-naphthyridine-5 (6H) -one], with 1200 nM; and `O=c1[nH]cc(Br)c2ncccc12` [Compound 5, 8Bromo-1,6-naphthyridine-5(6H) -one], with 1000 to 10000 nM.
Take `O=c1[nH]ccc2c1CCCN2` [Compound 6, 1,2,3,4-Tetrahydro-1,6-naphthyridine-5(6H)-one]: in data set [2], the IC50 is 1000 to 10000 nM.
Same read-out and setting: the same measure for `C[n+]1cccc2c(=O)[nH]ccc21` [Compound 7, 5,6-Dihydro-1-methyl-5-oxo-1,6-naphthyridin-1-ium monoiodide]: 10000 to 100000 nM.
For the compound `CN1CCCc2c1cc[nH]c2=O` [Compound 8, 1,2,3,4-Tetrahydro-1-methyl-1,6-naphthyridin-5 (6H) one], the half-maximal inhibitory concentration (IC50) in data set [2] came out at 510 nM. Also, in the data set on Rif-1 sarcoma (340 mg/kg/inj + x-Ray (2.5 Gy × 2)), the “T-C (days for treated minus control tumors to reach 1000 mg)” value is listed as 38 days.
For `O=c1[nH]ccc2c1ccc[n+]2[O-]` [Compound 9, 1,6-Naphthyridine-5(6H)-one, 1-oxide], in data set [2], the IC50 was 10000 to 100000 nM.
As to `O=C1NCCc2ncccc21` [Compound 13, 7,8-Dihydro-1,6-naphthyridin-5(6H)-one], in data set [2], the midpoint of inhibition, the IC50, lay at 2500 nM. The “T-C (days for treated minus control tumors to reach 1000 mg)” value in the data set on Rif-1 sarcoma (500 mg/kg/inj + x-Ray (2.5 Gy × 2)) is 26 days.
For the compound `CNC=O` [N-methylformamide], the “sensitization to lethal effects of radiation / inhibition of repair” value in data set [1] is reported as “sensitize tumors to the lethal effects of radiation”.
On to `Cc1cccc2c1CCNC2=O` [Reference Compound], for which the IC50 in data set [2] came to 110 nM.
For the compound `Cc1ncc([N+](=O)[O-])n1CCO` [metronidazole, 2-methyl-5-nitro-1H-imidazole-1-ethanol], the radiosensitizing activity entry with hypoxic tumor cells was “effective as radiosensitizers for hypoxic cells in vivo”; with hypoxic tumor cells (listed as Metronidazole), “active both in vitro and in vivo as a radiosensitizer”. Besides, the CNS side effects result in the data set on central nervous system (mouse, in vivo) is “peripheral neuropathy effects and convulsions in mice”.
For `COCC(O)Cn1ccnc1[N+](=O)[O-]` (stereo not drawn) [misonidazole, α-(methoxymethyl)-2-nitro-1H-imidazole-1-ethanol], the radiosensitizing activity entry with hypoxic tumor cells is on record as “of value as a radiosensitizer for hypoxic tumor cells; also recorded: effective as radiosensitizers for hypoxic cells in vivo”. The CNS side effects result in the data set on central nervous system (administered to mice) is “peripheral neuropathy effects and convulsions in mice”.
